Test results reported in the supplement of paper PMC10307832.

What was measured:
Assay in all cases: relative viability (nuclei count vs DMSO), 5 days (fraction); higher = more cells survive
[1] = compound: N#CC[C@H](C1CCCC1)n1cc(-c2ncnc3[nH]ccc23)cn1 [Ruxolitinib] + CC(=O)c1c(C)c2cnc(Nc3ccc(N4CCNCC4)cn3)nc2n(C2CCCC2)c1=O [Palbociclib] (partner 0.5 µM)
How it was run: (§1)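 Each reported value is a median over duplicate plates. It expresses relative viability: treated-well nuclei count divided by vehicle-well nuclei count. Lung cancer cell lines in 1536-well plates were dosed by pin tool a day after seeding, alone with one drug or with a fixed anchor-drug dose plus five library-drug doses (not always all listed) in √10 steps, and nuclei were counted after 5 days.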

Vismodegib + Palbociclib = compound: CS(=O)(=O)c1ccc(C(=O)Nc2ccc(Cl)c(-c3ccccn3)c2)c(Cl)c1 [Vismodegib] + CC(=O)c1c(C)c2cnc(Nc3ccc(N4CCNCC4)cn3)nc2n(C2CCCC2)c1=O [Palbociclib] (partner 0.5 µM)
How it was run: as §1

VE-821 + AZD7762 = compound: CS(=O)(=O)c1ccc(-c2cnc(N)c(C(=O)Nc3ccccc3)n2)cc1 [VE-821] + NC(=O)Nc1cc(-c2cccc(F)c2)sc1C(=O)N[C@H]1CCCNC1 [AZD7762] (partner 0.2 µM)
How it was run: as §1

VE-821 + Navitoclax = compound: CS(=O)(=O)c1ccc(-c2cnc(N)c(C(=O)Nc3ccccc3)n2)cc1 [VE-821] + CC1(C)CCC(c2ccc(Cl)cc2)=C(CN2CCN(c3ccc(C(=O)NS(=O)(=O)c4ccc(N[C@H](CCN5CCOCC5)CSc5ccccc5)c(S(=O)(=O)C(F)(F)F)c4)cc3)CC2)C1 [Navitoclax] (partner 0.5 µM)
How it was run: as §1

Cell Line	relative viability ([1]; first compound 0.08 µM)	relative viability ([1]; first compound 0.253 µM)	relative viability ([1]; first compound 0.8 µM)	relative viability ([1]; first compound 2.53 µM)	relative viability ([1]; first compound 8 µM)	relative viability (Vismodegib + Palbociclib; first compound 0.08 µM)	relative viability (Vismodegib + Palbociclib; first compound 0.253 µM)	relative viability (Vismodegib + Palbociclib; first compound 0.8 µM)	relative viability (Vismodegib + Palbociclib; first compound 2.53 µM)	relative viability (Vismodegib + Palbociclib; first compound 8 µM)	relative viability (VE-821 + AZD7762; first compound 0.08 µM)	relative viability (VE-821 + AZD7762; first compound 0.253 µM)	relative viability (VE-821 + AZD7762; first compound 0.8 µM)	relative viability (VE-821 + AZD7762; first compound 2.53 µM)	relative viability (VE-821 + AZD7762; first compound 8 µM)	relative viability (VE-821 + Navitoclax; first compound 0.08 µM)	relative viability (VE-821 + Navitoclax; first compound 0.253 µM)	relative viability (VE-821 + Navitoclax; first compound 0.8 µM)	relative viability (VE-821 + Navitoclax; first compound 2.53 µM)	relative viability (VE-821 + Navitoclax; first compound 8 µM)
NCI-H2347	0.425	0.395	0.42	0.43	0.478	0.443	0.418	0.419	0.448	0.488	0.703	0.746	0.42	0.698	0.531	0.941	0.809	0.775	0.959	0.763
LXF-289	0.539	0.598	0.626	0.599	0.565	0.582	0.605	0.595	0.594	0.6	0.931	1.08	1.12	0.971	0.686	1.01	0.967	0.989	1.1	1.01
HCC-78	0.422	0.481	0.431	0.507	0.492	0.535	0.505	0.483	0.44	0.488	0.679	0.626	0.5	0.58	0.392	0.831	0.783	0.707	1.04	0.654
HCC-366	0.417	0.441	0.389	0.365	0.19	0.342	0.373	0.463	0.456	0.449	0.235	0.148	0.0505	0.056	0.0429	1.34	1.02	0.925	1.02	0.0801
NCI-H1734	0.374	0.299	0.337	0.345	0.354	0.372	0.348	0.364	0.255	0.358	0.4	0.428	0.334	0.334	0.184	1.03	0.875	0.79	0.862	0.63
NCI-H3122	0.182	0.228	0.208	0.166	0.191	0.173	0.191	0.167	0.18	0.19	1.05	0.857	0.97	0.654	0.545	1.07	1.02	1.01	1.02	0.922
CAL-12T	0.316	0.334	0.461	0.363	0.223	0.45	0.499	0.569	0.454	0.442	0.568	0.514	0.512	0.352	0.239	1.21	1.26	1.22	1.05	1.1
HARA	0.301	0.273	0.286	0.228	0.253	0.284	0.245	0.221	0.303	0.27	0.256	0.315	0.145	0.158	0.249	1.23	1.13	1.09	1.15	0.99
NCI-H1666	0.66	0.613	0.654	0.675	0.632	0.634	0.678	0.637	0.624	0.691	0.753	0.705	0.798	0.705	0.713	0.98	1.01	0.939	0.875	0.703
NCI-H460	0.173	0.159	0.165	0.0961	0.155	0.225	0.125	0.217	0.156	0.35	0.568	0.411	0.217	0.117	0.0688	1.23	1.01	1.02	0.646	0.159
NCI-H1792	0.595	0.565	0.631	0.632	0.575	0.668	0.639	0.653	0.644	0.673	0.665	0.432	0.328	0.196	0.135	0.66	0.639	0.63	0.685	0.623
NCI-H2087	0.26		0.271	0.18	0.239	0.188	0.235	0.22	0.217	0.232	1.6	1.08	1.12	1.04	0.66	1.04	1.04	1.06	1.17	0.892
NCI-H1355	0.416	0.371	0.429	0.402	0.368	0.391	0.441	0.384	0.413	0.433	0.773	0.621	0.499	0.539	0.195	1.09	0.91	0.729	0.879	0.542
NCI-H838	0.254	0.223	0.227	0.164	0.159	0.214	0.225	0.227	0.261	0.273	0.944	0.859	0.771	0.727	0.692	1.3	1.11	1.02	1.18	1.07
NCI-H2085	0.453	0.468	0.474	0.39	0.369	0.459	0.474	0.483	0.467	0.502	0.952	0.843	0.366		0.271	1.12	1.12	1.24	1.24	1.03
NCI-H1651	0.506	0.496	0.524	0.502	0.525	0.463	0.511	0.502	0.51	0.54	0.457	0.386	0.4	0.463	0.366	0.97	0.941	0.949	1.02	0.864

Cell Line	relative viability ([1]; first compound 0.08 µM)	relative viability ([1]; first compound 0.253 µM)	relative viability ([1]; first compound 0.8 µM)	relative viability ([1]; first compound 2.53 µM)	relative viability ([1]; first compound 8 µM)	relative viability (Vismodegib + Palbociclib; first compound 0.08 µM)	relative viability (Vismodegib + Palbociclib; first compound 0.253 µM)	relative viability (Vismodegib + Palbociclib; first compound 0.8 µM)	relative viability (Vismodegib + Palbociclib; first compound 2.53 µM)	relative viability (Vismodegib + Palbociclib; first compound 8 µM)	relative viability (VE-821 + AZD7762; first compound 0.08 µM)	relative viability (VE-821 + AZD7762; first compound 0.253 µM)	relative viability (VE-821 + AZD7762; first compound 0.8 µM)	relative viability (VE-821 + AZD7762; first compound 2.53 µM)	relative viability (VE-821 + AZD7762; first compound 8 µM)	relative viability (VE-821 + Navitoclax; first compound 0.08 µM)	relative viability (VE-821 + Navitoclax; first compound 0.253 µM)	relative viability (VE-821 + Navitoclax; first compound 0.8 µM)	relative viability (VE-821 + Navitoclax; first compound 2.53 µM)	relative viability (VE-821 + Navitoclax; first compound 8 µM)
NCI-H1993	0.519	0.552	0.807	0.68	0.707	0.699	0.682	0.636	0.568	0.565	0.958	0.669	0.603	0.723	0.552	0.787	0.747	0.772	0.797	0.694
NCI-H2126	0.382	0.333	0.371	0.363	0.363	0.329	0.335	0.342	0.333	0.328	1.07	1.05	0.987	0.928	0.615	0.897	0.821	0.833	0.815	0.699
NCI-H1793	0.291	0.287	0.307	0.319	0.335		0.295	0.345	0.321	0.422	0.381	0.267		0.252	0.214	0.693	0.507	0.251	0.449	0.314
LC-2-ad	0.544	0.511	0.533	0.473	0.409	0.477	0.501	0.482	0.479	0.544	0.882	0.818	0.862	0.848	0.689	0.587	0.413	0.566	0.622	0.291
NCI-H647	0.523	0.443	0.44	0.344	0.346	0.328	0.409	0.463	0.354	0.452	0.46	0.235		0.217	0.0695	1.09	1.15	0.856	1	0.573
LCLC-97TM1	0.235	0.185	0.213	0.192	0.213	0.202	0.208	0.263	0.203	0.213	0.162	0.137	0.204	0.116	0.133	0.58	0.546	0.418	0.494	0.43
LK-2	0.863	0.696	0.787	0.701	0.686	0.72	0.708	0.607	0.83	0.745	0.477	0.392	0.282	0.415	0.252	0.996	0.965	0.767	1.06	0.97
BEN	0.488	0.456	0.504	0.503	0.51	0.455	0.483	0.469	0.479	0.512	0.651	0.62	0.675	0.505	0.396	0.0647	0.0527	0.059	0.0551	0.0693
EKVX		0.358	0.393	0.34	0.333		0.38	0.392	0.325	0.433	0.754	0.638	0.696	0.744	0.424	1.17	0.975	0.632	1.01	0.907
NCI-H1395	0.596	0.555	0.674	0.636	0.572	0.609	0.599	0.606	0.711	0.673	0.379	0.391	0.369	0.366	0.362		1.09	1.3	1.32	0.72
NCI-H23	0.538	0.485	0.604	0.426	0.34	0.505	0.439	0.544	0.412	0.522	0.18	0.148	0.153	0.14	0.126	0.856	0.797	0.553	0.747	0.491
LU99A	0.443	0.387	0.411	0.369	0.332	0.387	0.4	0.393	0.409	0.433	0.372	0.307	0.208	0.195	0.102	0.892	0.858	0.781	0.759	0.336
NCI-H1915	0.515	0.516	0.579	0.443	0.481	0.499	0.483	0.549	0.53	0.53	0.7	0.618	0.594	0.537	0.321	0.8	0.81	0.826	0.79	0.678
EMC-BAC-2	0.518	0.507	0.58	0.47	0.418	0.508	0.498	0.516	0.508	0.546	1.15	1.02	1.12	1.19	0.587	1.23	1.12	1.2	1.21	1.16
201T	0.366	0.362	0.407	0.433	0.397	0.323	0.393	0.363	0.359	0.382	0.67	0.578	0.585	0.648	0.46	1.23	1.2	1.21	1.32	1.12
NCI-H1944	0.33	0.321	0.375	0.31	0.318	0.292	0.324	0.326		0.379	0.527	0.402	0.296	0.277	0.121	1.16	0.997	0.92	1.1	0.643
